# Patent US20240208997A1, “CYCLIC BENZIMIDAZOLE DERIVATIVES AS CGAS INHIBITORS” (Boehringer Ingelheim International GmbH, priority 2022, published 2024)
# System: IFN induction in dsDNA-stimulated human whole blood
# Assay: Human whole blood assay (hWB IC50), dsDNA stimulated, IFNα2α production
# Type: cell-based
# Conditions: Table 1
# Description: 6.3 Method: Human Whole Blood Assay (Human WB IC50)
# For the detection of cellular cGAS activity human whole blood was stimulated by transfection with double stranded DNA. Pathway activity was monitored by measuring the IFNα2α production.
# Compounds were delivered as 10 mM DMSO solution and serially diluted and transferred to the 96-well cell culture plate (Corning #3595), prefilled with 20 μl OptiMEM (Gibco, #11058-021) in each well, using an Echo acoustic dispenser. Typically, 8 concentrations were used with the highest concentration at 10 μM in the final assay volume followed by ^˜1:5 dilution steps. DMSO concentration was set to 0.1% in the final assay volume. The 96-well assay plate contained 10 test compounds, and DMSO in control wells.
# Collection of human whole blood from 3 or more healthy donors (male or female, no medication for 7 days except contraceptive and thyroxine) as Na-Citrate blood (e.g. 3.8% in Monovettes from Sarstedt) was conducted in parallel. Whole blood was kept at room temperature for a maximum of 3 hours after collection until use in the assay. 160 μl of the whole blood samples was transferred to each well of the 96-well assay plates filled with compound/OptiMEM. All assay plates were prepared as duplicates with blood from different donors. Blood plates were kept at room temperature for 60 minutes and continuous shaking with 450 rpm, covered with the lid, but not sealed.
# 20 μl OptiMEM and 9.6:1 Fugene was added to all low control wells.
# After covering assay plates with aera seals and the lid, blood plates were kept at room temperature for 30 minutes and continuous shaking with 450 rpm, followed by an overnight incubation of 22 h at 37° C. in the incubator, without shaking.
# For the detection of IFNα-2α in human plasma, the biotinylated capture antibody (Antibody set IFNA2, Meso Scale Diagnostics #B21VH-3, including coating and capture antibody) was diluted 1:17.5 in Diluent 100 (Meso Scale Diagnostics #R50AA-4), according to the manufacturer's directions. U-Plex MSD GOLD 96-well Small Spot Strepavidin SECTOR Plates (Meso Scale Diagnostics #L45SA-5) were coated with 25 μl diluted capture antibody. Coated plates were incubated for 60 min at room temperature under continuous shaking at 700 rpm. MSD IFNα-2α plates were washed three times with 150 μl wash buffer (1× HBSS, 0.05% Tween).
# After blocking the plates with 100 μl block solution/well (1× HBSS with 0.2% Tween, 2% BSA) for 60 min at room temperature and continuous shaking at 700 rpm, plates were emptied as dry as possible by dumping just before continuing with the human plasma.
# Whole Blood assay plates were centrifuged at 1600 rpm for 10 minutes. 25 μl of supernatant was transferred with a pipetting robot from each whole blood plate to the corresponding IFNα-2α plate. Plates were sealed with microplate seals and kept at room temperature again under continuous shaking at 700 rpm for two hours.
# Next MSD IFNα-2α plates were washed three times with 150 μl wash buffer (1× HBSS, 0.05% Tween), before adding 25 μl MSD SULFO-TAG IFNα-2α Antibody solution (1:100 diluted in Diluent 3 (Meso Scale Diagnostics #R50AP-2) to each well of the plates.
# Afterwards plates were sealed with microplate seals and kept at room temperature again under continuous shaking at 700 rpm for two hours. Finally, MSD IFNα-2α plates were washed three times with 150 μl wash buffer (1× HBSS, 0.05% Tween). 150 μl 2× Read buffer was added to each well and plates were immediately measured with the MSD Sector S600 Reader using the vendor barcode.
# Data Evaluation and Calculation:
# For data evaluation and calculation, % control calculation of each well was based on the mean of high (DNA stimulated control) and mean of low (unstimulated control) controls by using the following formula:
# [counts(sample)−counts(low))/(counts(high)−counts(low))]*100
# The IC50-values were calculated using the standard 4 parameter logistic regression formula. […]
row,SMILES,IC50 [nM]
1,C[C@H]1CN2CC[C@@H]1n1c(nc3ccccc31)O[C@H]1C[C@@H](C(=O)O)N(C1)c1nc(nc3c1oc1ccccc13)CCOCCOC2=O (mixture of isomers) [Example 12.01],225
2,C[C@H]1CN2CC[C@@H]1n1c(nc3ccccc31)O[C@H]1C[C@@H](C(=O)O)N(C1)c1nc(nc3c1oc1ccccc13)CCCCCCC2=O (racemic) [Example 1.24],86
3,"C[C@H]1CN2CC[C@@H]1n1c(nc3cccc(Cl)c31)O[C@H]1C[C@@H](C(=O)O)N(C1)c1nc(nc3c1oc1ccccc13)CC(=O)NCCCC2=O (racemic) [Example 2.01, (12S,14S)-4-chloro-37-methyl-29,34-dioxo-11,18-dioxa-2,9,15,26,30,35,40-heptaazaoctacyclo[33.2.2.1^12,15.1^16,27.0^2,10.0^3,8.0^17,25.0^19,24]hentetraconta-3,5,7,9,16(40),17(25),19(24),20,22,26-decaene-14-carboxylic acid]",35
4,C[C@@H]1CN2CC[C@H]1n1c(nc3cc(Cl)ccc31)O[C@H]1C[C@@H](C(=O)O)N(C1)c1nc(nc3c1oc1ccccc13)CCOCCCC2=O [Example 1.01],87
5,C[C@H]1CN2CC[C@@H]1n1c(nc3cc(Cl)ccc31)O[C@H]1C[C@@H](C(=O)O)N(C1)c1nc(nc3c1oc1ccccc13)CCOCCCC2=O [Example 1.02],5
6,O=C(O)[C@@H]1C[C@H]2CN1c1nc(nc3c1oc1ccccc13)CCOCCCC(=O)N1CCC(CC1)n1c(nc3cc(F)ccc31)O2 [Example 1.03],36
7,O=C(O)[C@@H]1C[C@H]2CN1c1nc(nc3c1oc1ccccc13)CCOCCCC(=O)N1CCC(CC1)n1c(nc3ccc(F)cc31)O2 [Example 1.04],44
8,C[C@H]1CN2CC[C@@H]1n1c(nc3ccccc31)O[C@H]1C[C@@H](C(=O)O)N(C1)c1nc(nc3c1oc1ccccc13)CCOCCCC2=O [Example 1.05],5
9,C[C@H]1CN2CC[C@@H]1n1c(nc3ccc(Cl)cc31)O[C@H]1C[C@@H](C(=O)O)N(C1)c1nc(nc3c1oc1ccccc13)CCOCCCC2=O [Example 1.06],15
10,C[C@H]1CN2CC[C@@H]1n1c(nc3ccccc31)O[C@H]1C[C@@H](C(=O)O)N(C1)c1nc(nc3c1oc1cc(Cl)ccc13)CCOCCCC2=O [Example 1.07],13
11,C[C@H]1CN2CC[C@@H]1n1c(nc3cc(Cl)ccc31)O[C@H]1C[C@@H](C(=O)O)N(C1)c1nc(nc3c1oc1cc(Cl)ccc13)CCOCCCC2=O [Example 1.08],17
12,C[C@H]1CN2CC[C@@H]1n1c(nc3cc(Cl)ccc31)O[C@H]1C[C@@H](C(=O)O)N(C1)c1nc(nc3c1oc1cc(F)ccc13)CCCCOCC2=O [Example 1.09],2
13,C[C@H]1CN2CC[C@@H]1n1c(nc3ccc(Cl)cc31)O[C@H]1C[C@@H](C(=O)O)N(C1)c1nc(nc3c1oc1ccccc13)COCCCCC2=O [Example 1.10],12
14,C[C@H]1CN2CC[C@@H]1n1c(nc3cc(Cl)ccc31)O[C@H]1C[C@@H](C(=O)O)N(C1)c1nc(nc3c1oc1ccccc13)COCCOCC2=O [Example 1.11],3
15,C[C@H]1CN2CC[C@@H]1n1c(nc3cc(Cl)ccc31)O[C@H]1C[C@@H](C(=O)O)N(C1)c1nc(nc3c1oc1ccccc13)C(F)(F)CCCCCC2=O [Example 1.12],5
16,C[C@H]1CN2CC[C@@H]1n1c(nc3ccc(Cl)cc31)O[C@H]1C[C@@H](C(=O)O)N(C1)c1nc(nc3c1oc1ccccc13)C(F)(F)CCCCCC2=O [Example 1.13],15
17,C[C@H]1CN2CC[C@@H]1n1c(nc3ccccc31)O[C@H]1C[C@@H](C(=O)O)N(C1)c1nc(nc3c1oc1cc(F)ccc13)C(F)(F)CCCCCC2=O [Example 1.14],4
18,C[C@H]1CN2CC[C@@H]1n1c(nc3cc(F)ccc31)O[C@H]1C[C@@H](C(=O)O)N(C1)c1nc(nc3c1oc1cc(F)ccc13)C(F)(F)CCCCCC2=O [Example 1.15],3
19,C[C@H]1CN2CC[C@@H]1n1c(nc3ccccc31)O[C@H]1C[C@@H](C(=O)O)N(C1)c1nc(nc3c1oc1cc(Cl)ccc13)C(F)(F)CCCCCC2=O [Example 1.16],10

row,SMILES,IC50 [nM]
1,C[C@H]1CN2CC[C@@H]1n1c(nc3ccccc31)O[C@H]1C[C@@H](C(=O)O)N(C1)c1nc(nc3c1oc1ccccc13)C(F)(F)CCCCC(F)(F)C2=O [Example 1.17],8
2,C[C@H]1CN2CC[C@@H]1n1c(nc3cc(F)ccc31)O[C@H]1C[C@@H](C(=O)O)N(C1)c1nc(nc3c1oc1ccccc13)C(F)(F)CCCCC(F)(F)C2=O [Example 1.18],10
3,C[C@H]1CN2CC[C@@H]1n1c(nc3ccccc31)O[C@H]1C[C@@H](C(=O)O)N(C1)c1nc(nc3c1oc1ccccc13)CCCCCC2=O [Example 1.19],18
4,CC1CCc2nc(c3oc4ccccc4c3n2)N2C[C@H](C[C@H]2C(=O)O)Oc2nc3cc(Cl)ccc3n2[C@H]2CCN(C[C@@H]2C)C(=O)CCO1 (some centres unmarked) [Example 1.20],7
5,C[C@H]1CN2CC[C@@H]1n1c(nc3cc(Cl)ccc31)O[C@H]1C[C@@H](C(=O)O)N(C1)c1nc(nc3c1oc1ccccc13)C(F)(F)CCCOCC2=O [Example 1.21],1
6,C[C@H]1CN2CC[C@@H]1n1c(nc3ccccc31)O[C@H]1C[C@@H](C(=O)O)N(C1)c1nc(nc3c1oc1cc(Cl)ccc13)C(F)(F)CCCOCC2=O [Example 1.22],4
7,C[C@H]1CN2CC[C@@H]1n1c(nc3ccccc31)O[C@H]1C[C@@H](C(=O)O)N(C1)c1nc(nc3c1oc1ccccc13)CCCC(C)(C)CCC2=O [Example 1.23],143
8,C[C@H]1CCCCC(=O)N2CCC(CC2)n2c(nc3ccccc32)O[C@H]2C[C@@H](C(=O)O)N(C2)c2nc1nc1c2oc2ccccc21 [Example 1.25],41
9,C[C@@H]1CCCCC(=O)N2CCC(CC2)n2c(nc3ccccc32)O[C@H]2C[C@@H](C(=O)O)N(C2)c2nc1nc1c2oc2ccccc21 [Example 1.26],19
10,Cc1cccc2c1nc1n2[C@@H]2CCN(C[C@H]2C)C(=O)CCCCCC(F)(F)c2nc(c3oc4ccccc4c3n2)N2C[C@H](C[C@H]2C(=O)O)O1 [Example 1.27],1580
11,Cc1cccc2c1nc1n2[C@H]2CCN(C[C@@H]2C)C(=O)CCCCCC(F)(F)c2nc(c3oc4ccccc4c3n2)N2C[C@H](C[C@H]2C(=O)O)O1 [Example 1.28],28
12,C[C@H]1CN2CC[C@@H]1n1c(nc3ccccc31)O[C@H]1C[C@@H](C(=O)O)N(C1)c1nc(nc3c1oc1ccccc13)C(F)(F)COCCCCC2=O [Example 3.01],1
13,C[C@H]1CN2CC[C@@H]1n1c(nc3ccccc31)O[C@H]1C[C@@H](C(=O)O)N(C1)c1nc(nc3c1oc1ccccc13)C(F)(F)COCCCC2=O [Example 4.01],1
14,O=C(O)[C@@H]1C[C@H]2CN1c1nc(nc3c1oc1ccccc13)COCCCCCC(=O)N1CCC(CC1)n1c(nc3cccc(F)c31)O2 [Example 5.01],33
15,C[C@H]1CN2CC[C@@H]1n1c(nc3cc(Cl)ccc31)O[C@H]1C[C@@H](C(=O)O)N(C1)c1nc(nc3c1oc1ccccc13)C(F)(F)OCCCCC2=O [Example 6.01],3
16,C[C@@H]1CC(=O)N2CCC(CC2)n2c(nc3ccccc32)O[C@H]2C[C@@H](C(=O)O)N(C2)c2nc(nc3c2oc2ccccc23)CCCO1 [Example 7.01],101
17,O=C(O)[C@@H]1C[C@H]2CN1c1nc(nc3c1oc1ccccc13)COCCCC(F)(F)C(=O)N1CCC(CC1)n1c(nc3ccccc31)O2 [Example 8.01],35
18,O=C(O)[C@@H]1C[C@H]2CN1c1nc(nc3c1oc1ccccc13)CCCOCC(=O)N1CCC(CC1)n1c(nc3ccccc31)O2 [Example 9.01],41
19,C[C@@H]1CN2CC[C@H]1n1c(nc3ccccc31)O[C@H]1C[C@@H](C(=O)O)N(C1)c1nc(nc3c1oc1ccccc13)CCCCCOC2=O [Example 10.01],439
